How the values were obtained:
[1] = target: T1, ARFA (ARFB1b), residues 18-192 (Arabidopsis thaliana, UniProt Q9LFJ7); assay: tryptophan fluorescence nucleotide exchange (ex […] nm, em […] nm); assay type: binding; details: 1 uM GDP-loaded ARF, 66 uM GTPgammaS, 50 nM SEC7 domain of BIG5 (residues 587-791), 10 mM MgCl2, pH 7.5, 37 C
T1 construct: N-terminally truncated (residues 18-192), 6xHis-tagged (pET30a), expressed in E. coli BL21(DE3), Ni-NTA purified

[2] = target: T2, ARF1 (ARFA1c), residues 18-181 (Arabidopsis thaliana, UniProt P36397); assay: as above; assay type: binding; details: 1 uM GDP-loaded ARF, 66 uM GTPgammaS, 50 nM SEC7 domain of BIG5 (residues 587-791), 10 mM MgCl2, pH 7.5, 37 C
T2 construct: N-terminally truncated (residues 18-181), 6xHis-tagged (pET30a), expressed in E. coli BL21(DE3), Ni-NTA purified
T2 sequence (P36397 18-181): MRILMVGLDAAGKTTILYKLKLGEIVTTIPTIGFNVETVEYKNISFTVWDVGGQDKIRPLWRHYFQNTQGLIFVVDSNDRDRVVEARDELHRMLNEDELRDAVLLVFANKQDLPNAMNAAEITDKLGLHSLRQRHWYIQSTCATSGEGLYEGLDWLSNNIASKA

T1 sequence (Q9LFJ7 18-192): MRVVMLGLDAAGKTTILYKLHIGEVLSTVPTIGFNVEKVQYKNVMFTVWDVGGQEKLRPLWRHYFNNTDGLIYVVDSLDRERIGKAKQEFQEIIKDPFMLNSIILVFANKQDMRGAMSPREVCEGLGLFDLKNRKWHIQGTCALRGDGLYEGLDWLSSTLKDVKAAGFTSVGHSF

With `Nc1nc2c(ncn2[C@@H]2O[C@H](COP(=O)(O)OP(=O)(O)OP(O)(O)=S)[C@@H](O)[C@H]2O)c(=O)[nH]1` [GTPγS] the “tryptophan fluorescence nucleotide exchange (ex 298 nm, em 340 nm)” value [1] was “The SEC7 domain of BIG5 catalyzed GDP-GTP exchange on ARF1(wt), ARFA(wt) and ARFA-Q71L” and the “tryptophan fluorescence nucleotide exchange (ex 298 nm, em 340 nm)” value [2] was “The SEC7 domain of BIG5 catalyzed GDP-GTP exchange on ARF1(wt), ARFA(wt) and ARFA-Q71L”.
